Article PMC10046961, “High-Throughput Screening Assay for Detecting Drug-Induced Changes in Synchronized Neuronal Oscillations and Potential Seizure Risk Based on Ca^2+ Fluorescence Measurements in Human Induced Pluripotent Stem Cell (hiPSC)-Derived Neuronal 2D and 3D Cultures” (Cells, 2023)
Where two headings read alike, the source gives them in different places. Marks after values point to notes of the source that are not given here.

Assays:
[1] = test system: hiPSC-derived neurons co-cultured with human primary astrocytes in 2D; test: Ca2+ transient oscillation assay (FDSS), 2D co-culture; format: cell-based; conditions: Homo sapiens, 1 h, 60 min
Text: (§1) In this study, we used cryopreserved excitatory neurons that were differentiated from human induced pluripotent stem cells (hiPSCs; Cat #: EX-SeV-CW50065) (Elixirgen Scientific, Inc., Baltimore, MD, USA). The hiPSCs used, namely, CW50065 were derived from a healthy person and distributed by the California Institute of Regenerative Medicine Human Induced Pluripotent Stem Cell Repository. Human iPSC-derived excitatory neurons were differentiated from CW50065 using a proprietary cocktail of differentiation-inducing factors called Quick-Neuron™ EX-SeV (Batch number: EX-SeV-CW50065-L; Elixirgen Scientific, Inc.), cryopreserved 3 days after differentiation induction and distributed. Human iPSC-derived excitatory neurons were recovered from cryopreservation and maintained essentially as instructed by the manufacturer.
(§2) Cryopreserved human primary astrocytes (#N7805100, Thermo Fisher Scientific, Waltham, MA, USA) were recovered as instructed by the manufacturer and seeded in a 10 cm dish at the density of 2,000,000 cells. The culture was maintained using the Human Astrocytes Kit (#N7805200, Thermo Fisher Scientific) for 12 days. Half of the culture medium was replaced with fresh medium every 2–3 days during the culture period. These astrocytes were harvested using StemPro™ Accutase™ Cell Dissociation Reagent (#A1110501, Thermo Fisher Scientific) when they reached confluency. These cells were cryopreserved in STEM-CELLBANKER® GMP grade (ZENOGEN PHARMA, Kohriyama, Fukushima Japan) at the density of 2,000,000 cells per vial as working stocks for co-culture with neurons in 2D and 3D conditions described below. After a working stock was recovered, astrocytes were directly mixed with hiPSC-derived neurons for plating without further expansion.
Live neurons (hiPSC neurons) and human primary astrocytes were recovered from cryopreservation as described above and seeded in each well of 384-well plates at the density of 10,000 cells (HiPSC-cortical neurons) and human primary astrocytes at 2500 cells (ratio 4:1). These co-cultures were maintained under the medium conditions recommended by the manufacturer, namely Medium N(G2P), to complete the differentiation of excitatory neurons for the first week. […] Half of the culture medium was replaced with fresh medium every 3–4 days during the culture period.
After the incubation, the culture medium containing Cal-520 was replaced with 50 μL of HBSS supplemented with 0.1 mM MgCl2, 2 mM CaCl2, 10 mM HEPES, and 10 mM glucose and incubated at 37 ℃ for 15 min.
(§3) Prior to the fluorescence measurements, all wells to be measured were treated with 0.04% dimethyl sulfoxide (DMSO) to stabilize the oscillation signal. The first recording started 10 min after the addition of DMSO for each plate for 20 min. The effects of the test compound were recorded again starting 60 min after the administration of compounds, for 20 min.
Twenty-five compounds (Table 1) were first dissolved in either DMSO (most compounds) or distilled water depending on the compound, and further diluted with PBS to produce stock solutions concentrated 10-fold. […] The final concentration of DMSO was adjusted to 0.1%. Changes in the fluorescence intensity (FI) produced by Ca^2+ flux were measured at 37 °C for all wells of a 384-well plate simultaneously using the FDSS/µCell system (#C13299, Hamamatsu Photonics, Hamamatsu, Shizuoka, Japan). The excitation and the emission wavelengths were 470 nm and 540 nm, respectively. The recording duration was 20 min with a sampling frequency of 2 Hz for cells cultured under 2D conditions and 10 Hz for cells cultured under 3D conditions.

[2] = test system: hiPSC-derived neurons co-cultured with human primary astrocytes in 3D; test: Ca2+ transient oscillation assay (FDSS), 3D spheroids; format: cell-based; conditions: 60 min
Text: as §1, §2
We used U-shaped-bottom 96-well plates (#174925, Thermo Fisher Scientific) without any prior coating to make a spheroid in each well. Neurons and astrocytes were seeded and maintained as described for 2D cultures, except for the following modifications. First, neurons and astrocytes were seeded in each well of the 96-well plates at the density of 8000 hiPSC neurons with 8000 human primary astrocytes (8000)/well (ratio 1:1). Second, when the differentiation of excitatory neurons was completed one week after seeding, cells were fed with BrainPhys^TM Neuronal Medium (#05793, […] Technologies, Vancouver, BC, Canada) supplemented with 2% SM1 Neuronal Supplement, 1% N2 Supplement-A, and 10% Neuron culture medium for 5 weeks.
Cells maintained as spheroids (3D) in the U-shaped-bottom 96-well plates were transferred into 384-well spheroid plates (#4516, Merck, Corning, NY, USA) with 25 µL of the culture medium. A Ca^2+-indicating dye solution including […] was prepared using the EarlyTox™ Cardiotoxicity Kit (#R8211, Molecular Devices, LLC, San Jose, CA, USA) according to the manufacturer. Then, the same volume of the dye solution was dispensed into each well.
as §3
Twenty-five compounds (Table 1) were first dissolved in either DMSO (most compounds) or distilled water depending on the compound, and further diluted with PBS to produce stock solutions concentrated 10-fold. Then, 5 μL of each compound solution was injected into each well using an automatic pipetting robot (#4505, ASSIST PLUS pipetting robot, Integra Biosciences Corp., Hudson, NH, USA), so that the final concentration of each compound was 1-fold nominal in the well.

[3] = read-out: Area under the curve - 2D Mean
[4] = read-out: Peak amplitude - 2D Mean
[5] = read-out: Peak-to-peak interval - 2D Mean

In the case of `C[C@]12N[C@H](Cc3ccccc31)c1ccccc12` [MK-801, Dizocilpine], the activation at 0.11 µM [1, 3] is reported as -35.7%, the activation at 0.11 µM ([1]; read-out: Peak Number—2D Mean) is reported as -82.8% and the activation at 0.11 µM [1, 4] is reported as -41.8%. It also gave an activation at 0.11 µM ([1]; read-out: Peak width - 2D Mean) of -3.2%, an activation at 0.11 µM [1, 5] of 204% and an activation at 0.33 µM [1, 3] of -57%. It also gave an activation at 0.33 µM ([1]; read-out: Peak Number—2D Mean) of -90.4%, an activation at 0.33 µM [1, 4] of -63.6% and an activation at 0.33 µM ([1]; read-out: Peak width - 2D Mean) of -23.6%. It also gave an activation at 0.33 µM [1, 5] of 3.6%, an activation at 1 µM [1, 3] of -57.4% and an activation at 1 µM ([1]; read-out: Peak Number—2D Mean) of -84.6%. For the same compound, the activation at 1 µM [1, 4] was -58.6%, the activation at 1 µM ([1]; read-out: Peak width - 2D Mean) was -32.8% and the activation at 1 µM [1, 5] was -57.4%. It also gave an activation at 3 µM [1, 3] of -79.8%, an activation at 3 µM ([1]; read-out: Peak Number—2D Mean) of -96.3% and an activation at 3 µM [1, 4] of -79.7%. The activation at 3 µM ([1]; read-out: Peak width - 2D Mean) was -70%, the activation at 3 µM [1, 5] was -100% and the “Area under the curve - 3D Mean” value ([2]; 0.11 µM) was 127.3 % change from baseline. The “Peak Number—3D Mean” value ([2]; 0.11 µM) was −49.1 * % change from baseline, the “Peak amplitude - 3D Mean” value ([2]; 0.11 µM) was 104.7 % change from baseline and the “Peak width - 3D Mean” value ([2]; 0.11 µM) was 8.0 % change from baseline. The “Peak-to-peak interval - 3D Mean” value ([2]; 0.11 µM) was 76.1 % change from baseline, the “Area under the curve - 3D Mean” value ([2]; 0.33 µM) was 66.6 % change from baseline and the “Peak Number—3D Mean” value ([2]; 0.33 µM) was −67.3 ** % change from baseline. The “Peak amplitude - 3D Mean” value ([2]; 0.33 µM) was 76.2 % change from baseline, the “Peak width - 3D Mean” value ([2]; 0.33 µM) was −29.3 % change from baseline and the “Peak-to-peak interval - 3D Mean” value ([2]; 0.33 µM) was 66.4 % change from baseline. For the same compound, the “Area under the curve - 3D Mean” value ([2]; 1 µM) was -66.9 % change from baseline, the “Peak Number—3D Mean” value ([2]; 1 µM) was −97.2 ** % change from baseline and the “Peak amplitude - 3D Mean” value ([2]; 1 µM) was −64.1 % change from baseline. The “Peak width - 3D Mean” value ([2]; 1 µM) was −85.8 % change from baseline, the “Peak-to-peak interval - 3D Mean” value ([2]; 1 µM) was −100.0 % change from baseline and the “Area under the curve - 3D Mean” value ([2]; 3 µM) was 41.0 % change from baseline. The “Peak Number—3D Mean” value ([2]; 3 µM) was −84.8 ** % change from baseline, the “Peak amplitude - 3D Mean” value ([2]; 3 µM) was 67.2 % change from baseline and the “Peak width - 3D Mean” value ([2]; 3 µM) was −36.8 % change from baseline. The “Peak-to-peak interval - 3D Mean” value ([2]; 3 µM) was −100.0 % change from baseline.
